{
  "source": "paper PMC10325066",
  "about": "“The FMRF-NH2 gated sodium channel of Biomphalaria glabrata: Localization and expression following infection by Schistosoma mansoni” (PLOS Neglected Tropical Diseases, 2023)",
  "key": {"[1]": {"system": "Biomphalaria glabrata FMRF-NH2 gated sodium channel (Bgl-FaNaC)", "assay": "Two-electrode voltage clamp of Bgl-FaNaC heterologously expressed in Xenopus oocytes", "format": "cell-based", "details": "peptide 1 mM (given for FLRF-NH2, pQFYRI-NH2, FIRF-NH2; not given for GDPFLRF-NH2); oocyte voltage clamp -60 mV", "description": "The cDNA encoding the Bgl-FaNaC sequence was codon-optimized for Xenopus laevis and synthesized by Integrated DNA Technologies (IDT, Coralville IA). The Flag-tag protein affinity sequence (DYKDDDDK; Sigma-Aldrich) was added to the N-terminal to enable confirmation of expression. The cDNA was subcloned into the Xenopus expression vector pGEM HE as described previously. The Bgl-FaNaC full-length RNA was transcribed in vitro, capped and polyadenylated using the T7 mScript Standard mRNA Production System (CellScript, Madison WI).\nOocytes were obtained from dissected ovaries of adult Xenopus laevis specimens (Xenopus Express, Brooksville FL). They were dispersed with type II collagenase and manually defolliculated. RNA injections were performed in pre-selected oocytes from stages V and VI. Oocytes were injected with 38.6 nL of Bgl-FaNaC encoding RNA at a concentration of 20 ng/uL using a Nanoliter 2000 microinjector (World Precision Instruments, Sarasota FL).\nInjected oocytes were placed at the bottom of a plastic recording chamber (3 ml volume) lined with a nylon mesh and continuously perfused with ND96 (96 mM NaCl, 2 mM KCl, 1.8 mM CaCl2, 1 mM MgCl2, 5 mM HEPES, pH 7.6; see detailed methods in [38]). An OC725B oocyte clamp (Warner Instruments LLC., Hamden CT) was used to clamp the membrane potential at -60 mV with independent microelectrodes for recording (0.1 M potassium chloride) and passing current (3 M potassium chloride). Data were acquired on a Digidata 1200 interface with Clampex (V.6) and analyzed with AxoScope 10.7 (Axon Instruments, Union City CA). All experiments were carried out at room temperature (20–25°C).\nSynthetic FMRF-NH2, FLRF-NH2, FIRF-NH2, pQFYRI-NH2, and GDPFLRF-NH2 peptides (>90% purity) were purchased from GL Biochem (Shanghai, China). All peptides were dissolved in ND96 in a stock of 1 mM. Peptide stocks were frozen at -20°C and serial dilutions were freshly prepared before each experiment. Peptides were applied manually using a pipettor (1 mL, upstream from the oocyte)."}, "Planorbella FaNaC": {"system": "Planorbella FaNaC", "parameters": "method as in PMID 10878095", "details": "cited from earlier work"}, "Cornu aspersum FaNaC": {"system": "Cornu aspersum FaNaC", "parameters": "method as in PMID 7501021", "details": "cited from earlier work"}},
  "note": "pEC50: −log10 of the molar value. “Also recorded” adds a separate entry of the source.",
  "data": [
    {"compound": "pQFYRI-NH2 [Synthetic peptide encoded on the tetrapeptide precursor Bgl-FaRP1]", "values": [
      {"measurement": "Current response to related peptide application", "setting": "[1]", "value": "No currents"}
    ]},
    {"compound": "GDPFLRF-NH2 [Synthetic heptapeptide, product of the heptapeptide precursor Bgl-FaRP2]", "values": [
      {"measurement": "Current response to related peptide application", "setting": "[1]", "value": "No currents; also recorded: No response was elicited"}
    ]},
    {"compound": "FIRF-NH2 [Synthetic peptide encoded on the tetrapeptide precursor Bgl-FaRP1]", "values": [
      {"measurement": "Current response to related peptide application", "setting": "[1]", "value": "No currents"}
    ]},
    {"compound": "FLRF-NH2 [Synthetic related peptide encoded on the Biomphalaria FMRF-NH2 precursor]", "values": [
      {"measurement": "Current response to related peptide application", "setting": "[1]", "value": "No currents; also recorded: No response was detected"},
      {"measurement": "Response of FaNaC to peptide", "setting": "Planorbella FaNaC", "value": "negligible"},
      {"measurement": "pEC50", "setting": "Cornu aspersum FaNaC; C. aspersum FaNaC, read-out: EC50 for FaNaC activation", "value": 4.96}
    ]},
    {"compound": "N=C(N)NC(=O)c1nc(Cl)c(N)nc1N", "note": "[amiloride]", "values": [
      {"measurement": "Effect of amiloride on FaNaC responses to FMRF-NH2", "setting": "Planorbella FaNaC", "value": "potentiates responses to FMRF-NH2"},
      {"measurement": "Effect of amiloride on FaNaC", "setting": "Cornu aspersum FaNaC; FaNaC of Cornu aspersa", "value": "blocks"}
    ]}
  ]
}
